The record followed here is article PMC4846294 (Bioorganic & medicinal chemistry, 2016).

A value given as a limit tells only on which side of the number the result lay.

Data set [1] addresses T1, LAP (from porcine kidney microsomes) (Sus scrofa, UniProt P15145).
T1 sequence (P15145 1-963): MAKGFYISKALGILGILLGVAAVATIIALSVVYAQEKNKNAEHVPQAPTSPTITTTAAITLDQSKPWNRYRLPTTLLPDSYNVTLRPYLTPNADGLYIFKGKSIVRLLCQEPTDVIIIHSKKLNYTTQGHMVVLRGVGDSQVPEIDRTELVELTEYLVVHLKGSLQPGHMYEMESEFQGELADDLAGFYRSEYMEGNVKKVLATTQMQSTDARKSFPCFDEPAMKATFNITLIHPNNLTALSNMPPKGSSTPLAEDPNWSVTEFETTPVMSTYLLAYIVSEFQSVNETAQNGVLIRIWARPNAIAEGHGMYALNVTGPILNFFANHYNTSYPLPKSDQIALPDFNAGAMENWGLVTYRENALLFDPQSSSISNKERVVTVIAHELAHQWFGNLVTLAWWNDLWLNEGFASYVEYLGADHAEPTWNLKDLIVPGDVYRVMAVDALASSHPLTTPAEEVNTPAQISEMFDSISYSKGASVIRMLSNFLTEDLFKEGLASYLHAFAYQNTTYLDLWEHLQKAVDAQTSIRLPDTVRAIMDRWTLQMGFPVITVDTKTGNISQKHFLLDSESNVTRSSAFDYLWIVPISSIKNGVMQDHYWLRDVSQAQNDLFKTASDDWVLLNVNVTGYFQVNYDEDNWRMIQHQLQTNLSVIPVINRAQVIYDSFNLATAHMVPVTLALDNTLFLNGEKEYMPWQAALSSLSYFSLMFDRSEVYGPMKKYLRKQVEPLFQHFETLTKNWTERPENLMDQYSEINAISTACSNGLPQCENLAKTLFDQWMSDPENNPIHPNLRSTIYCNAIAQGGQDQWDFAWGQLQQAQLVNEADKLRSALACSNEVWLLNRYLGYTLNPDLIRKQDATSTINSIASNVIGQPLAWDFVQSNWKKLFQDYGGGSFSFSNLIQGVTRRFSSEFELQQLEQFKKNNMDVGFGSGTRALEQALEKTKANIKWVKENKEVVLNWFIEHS
Kind of data set: In vitro LAP cleavage assay. In kind it is in vitro ADME. The note with it: for % Cleavage by LAP: area ratio of parent drug and prodrug (HPLC); for Cleavage with a large amount of LAP (in words): 1.5 units of LAP.

The subject of data set [2] is MDA-MB-231-luc human breast tumor. Put plainly: In vivo dynamic bioluminescence imaging. Details: species or system SCID mice. The note with it: for BLI signal compared with baseline (significance): 4 h and 24 h.
Data set [3] relates to human cancer cell lines [SK-OV-3 (ovarian), NCI-H460 (lung), and DU-145 (prostate)]. Kind of data set: SRB cytotoxicity, stated across all three cell lines. Type of data set: cell-based. The settings on record: parent drugs, three cell lines.

As for `COc1ccc2c(c1NC(=O)CN)CCCC=C2c1cc(OC)c(OC)c(OC)c1.Cl` [Compound 45, 2-Amino-N-(3-methoxy-9-(3,4,5-trimethoxyphenyl)-6,7-dihydro-5H-benzo[7]annulen-4-yl)acetamide hydrochloride], the “% Cleavage by LAP” value in data set [1] (pH 7.2, 37 °C) was found to be 100%. Consider `COc1ccc2c(c1NC(=O)[C@@H](N)CO)CCC=C2c1cc(OC)c(OC)c(OC)c1.Cl` [Compound 38, (S)-2-Amino-3-hydroxy-N-(2-methoxy-5-(3,4,5-trimethoxyphenyl)-7,8-dihydronaphthalen-1-yl)propanamide hydrochloride], for which the “% Cleavage by LAP” value in data set [1] (pH 7.2, 37 °C) is under 10%.

With `COc1ccc(/C=C\c2cc(OC)c(OC)c(OC)c2)cc1NC(=O)[C@@H](N)CO.Cl` [AVE8062, reference compound], in data set [1], the “Cleavage by LAP (in words)” value is on record as “effectively cleaved”. In the case of `COc1ccc(/C=C\c2cc(OC)c(OC)c(OC)c2)c(NC(=O)CN)c1NC(=O)CN.Cl.Cl` [Compound 24, (Z)-N,N'-(3-methoxy-6-(3,4,5-trimethoxystyryl)-1,2-phenylene)bis(2-aminoacetamide)], in data set [1], the “Cleavage by LAP (in words)” value is on record as “resistant to LAP mediated cleavage”. The “Disappearance of the prodrug on LAP treatment” value in data set [1] (LAP 0.12 units, by 25 h) is “greater than 95%”. In data set [1] (pH 7.2, 37 °C), the “% Cleavage by LAP” value is <10-90%. For the compound `COc1ccc(/C=C\c2cc(OC)c(OC)c(OC)c2)c(NC(=O)[C@@H](N)CO)c1NC(=O)[C@@H](N)CO` [Compound 22, (2S, 2'S)-N, N’-(3-methoxy-6-((Z)-3,4,5-trimethoxystyryl)-1,2-phenylene)bis(2-amino-3-hydroxypropanamide)], in data set [1], the “Cleavage by LAP (in words)” value is recorded as “resistant to LAP mediated cleavage” and the “Cleavage with a large amount of LAP (in words)” value is reported as “did not result in any observable cleavage”. For `COc1ccc2c(c1NC(=O)CN)CCC=C2c1cc(OC)c(OC)c(OC)c1.Cl` [Compound 44, 2-Amino-N-(2-methoxy-5-(3,4,5-trimethoxyphenyl)-7,8-dihydronaphthalen-1-yl)acetamide hydrochloride], the “% Cleavage by LAP” value in data set [1] (pH 7.2, 37 °C) came out at 100%. Moreover, in data set [1] (rate study, pH 7.2, 37 °C), the “Specific Activity of LAP” value amounted to 15.5 μM/min/enzyme unit. Moreover, the “BLI signal versus saline control (significance)” value in data set [2] (5 mg/kg ip, 4 h time point) is “not significantly different from saline control”; in data set [2] (15 mg/kg ip, p<0.05) it was “significantly different from saline”. In data set [2] (10 or 15 mg/kg ip), the “BLI signal compared with baseline (significance)” value is reported as “significantly less signal”. As for `COc1ccc(/C=C\c2cc(OC)c(OC)c(OC)c2)c(NC(=O)[C@@H](N)CO)c1NC(=O)[C@@H](N)CO.Cl.Cl` [Compound 23, (2S, 2'S)-N, N’-(3-methoxy-6-((Z)-3,4,5-trimethoxystyryl)-1,2-phenylene)bis(2-amino-3-hydroxypropanamide) dihydrochloride], in data set [1], the “Cleavage by LAP (in words)” value is given as “resistant to LAP mediated cleavage” and the “Cleavage with a large amount of LAP (in words)” value was “did not result in any observable cleavage”. Consider `COc1ccc(/C=C\c2cc(OC)c(OC)c(OC)c2)cc1OP(=O)(O)O` [CA4P, combretastatin A-4 phosphate, reference compound], for which, in data set [2] (CA4P 120 mg/kg ip), the “BLI signal compared with baseline (significance)” value was “significantly less signal”. For the same compound, the “BLI signal versus saline control (significance)” value in data set [2] (CA4P 120 mg/kg ip, p<0.05) was “significantly different from saline”.

On to `COc1ccc(/C=C\c2cc(OC)c(OC)c(OC)c2)c(N)c1` [Compound 7, (Z)-2-(2′-amino-4′-methoxyphenyl)-1-(3,4,5-trimethoxyphenyl)ethene], for which the “GI50 values described in words” value in data set [3] was “highly potent”.

For the compound `COc1ccc(/C=C/c2cc(OC)c(OC)c(OC)c2)c(NC(=O)C(N)CO)c1.Cl` (stereo in doubt) [Compound 17, (S,E)-2-amino-3-hydroxy-N-(5-methoxy-2-(3,4,5-trimethoxystyryl)phenyl)propanamide hydrochloride], in data set [1], the “Cleavage by LAP (in words)” value is on record as “effectively cleaved”.
